Experimental data from patent US20080269267A1, “KINASE INHIBITORS USEFUL FOR THE TREATMENT OF MYLEOPROLIFIC DISEASES AND OTHER PROLIFERATIVE DISEASES” (Deciphera Pharmaceuticals, LLC, priority 2007, published 2008).
Numbering of substitutions follows the chain as printed. Counter-ions that a name gives are not always drawn.

Experiments:
Abl kinase (SEQ ID NO:1) = target: T1, Abl kinase (SEQ ID NO:1) (Homo sapiens, UniProt P00519); test: Abl kinase assay (pyruvate kinase/lactate dehydrogenase coupled, ADP production); conditions: 2 h preincubation at 30° C., ATP 500 μM; read-out: Abl Enzyme Assay, biochemical IC50
T1 construct: purchased deCode Genetics
T1 sequence (P00519 with tags, fused parts or gaps): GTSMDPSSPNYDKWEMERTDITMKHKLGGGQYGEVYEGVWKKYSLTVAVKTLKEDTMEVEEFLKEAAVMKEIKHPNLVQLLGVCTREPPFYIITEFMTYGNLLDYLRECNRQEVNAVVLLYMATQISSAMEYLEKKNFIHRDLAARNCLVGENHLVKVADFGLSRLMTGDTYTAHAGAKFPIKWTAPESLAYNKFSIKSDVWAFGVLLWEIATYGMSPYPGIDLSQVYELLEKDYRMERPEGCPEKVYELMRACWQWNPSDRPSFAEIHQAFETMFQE
Protocol: Abl Kinase (SEQ ID NO:1) Assay
Activity of Abl kinase (SEQ ID NO:1) was determined by following the production of ADP from the kinase reaction through coupling with the pyruvate kinase/lactate dehydrogenase system (e.g., Schindler, et al. Science (2000) 289, 1938-1942). In this assay, the oxidation of NADH (thus the decrease at A340nm) was continuously monitored spectrophometrically. The reaction mixture (100 μl) contained Abl kinase (1 nM. Abl from deCode Genetics), peptide substrate (EAIYAAPFAKKK. 0.2 mM), MgCl2 (10 mM), pyruvate kinase (4 units), lactate dehydrogenase (0.7 units), phosphoenol pyruvate (1 mM), and NADH (0.28 mM) in 90 mM Tris buffer containing 0.2% octyl-glucoside and 3.5% DMSO, pH 7.5. Test compounds were incubated with Abl (SEQ ID NO:1) and other reaction reagents at 30° C. for 2 h before ATP (500 μM) was added to start the reaction. The absorption at 340 nm was monitored continuously for 2 hours at 30° C. on Polarstar Optima plate reader (BMG). The reaction rate was calculated using the 1.0 to 2.0 h time frame. Percent inhibition was obtained by comparison of reaction rate with that of a control (i.e. with no test compound). IC50 values were calculated from a series of percent inhibition values determined at a range of inhibitor concentrations using software routines as implemented in the GraphPad Prism software package.

[1] = target: T2, T315I Abl kinase (SEQ ID NO:2) (Homo sapiens, UniProt P00519, T315I); test: T315I Abl kinase assay (pyruvate kinase/lactate dehydrogenase coupled); conditions: 1 h preincubation at 30° C., ATP 500 μM; read-out: Abl T315l Enzyme Assay, biochemical IC50
T2 construct: purchased deCode Genetics
T2 sequence (P00519 with tags, fused parts or gaps T315I): T1 sequence (P00519 with tags, fused parts or gaps) with T94I
Protocol: Abl Kinase (SEQ ID NO:2) Assay
Activity of T315I Abl kinase (SEQ ID NO:2) was determined by following the production of ADP from the kinase reaction through coupling with the pyruvate kinase/lactate dehydrogenase system (e.g., Schindler, et al. Science (2000) 289, 1938-1942). In this assay, the oxidation of NADH (thus the decrease at A340nm) was continuously monitored spectrophometrically. The reaction mixture (100 μl) contained Abl kinase (4.4 nM. […] Abl from deCode Genetics), peptide substrate (EAIYAAPFAKKK, 0.2 mM), MgCl2 (10 mM), pyruvate kinase (4 units), lactate dehydrogenase (0.7 units), phosphoenol pyruvate (1 mM), and NADH (0.28 mM) in 90 mM Tris buffer containing 0.2% octyl-glucoside and 1% DMSO, pH 7.5. Test compounds were incubated with T315I Abl (SEQ ID NO:2) and other reaction reagents at 30° C. for 1 h before ATP (500 μM) was added to start the reaction. The absorption at 340 nm was monitored continuously for 2 hours at 30° C. on Polarstar Optima plate reader (BMG). The reaction rate was calculated using the 1.0 to 2.0 h time frame. Percent inhibition was obtained by comparison of reaction rate with that of a control (i.e. with no test compound). IC50 values were calculated from a series of percent inhibition values determined at a range of inhibitor concentrations using software routines as implemented in the GraphPad Prism software package.

[2] = target: T3, BaF3 cells transfected with T315I p210 BCR-Abl (Homo sapiens, UniProt P00519, T315I, cells depend on it); test: Ba/F3 p210 T315I whole cell proliferation assay (Cell Titer Blue, 72 hours); assay type: cell-based; conditions: 72 hours incubation; read-out: Ba/F3 p210 T315I whole cell proliferation assay, antiproliferation IC50
T3 construct: fused on or other part: P11274 (Breakpoint cluster region protein)
Protocol: (§1) BaF3 cells (parental or transfected with the following: wild type p210 BCR-Abl and T315I p210 BCR-Abl was obtained from Professor Richard Van Etten (New England Medical Center, Boston, Mass.). Briefly, cells were grown in RPMI 1640 supplemented with 10% characterized fetal bovine serum (HyClone, Logan, Utah) at 37 degrees Celsius, 5% CO2, 95% humidity. Cells were allowed to expand until reaching 80% saturation at which point they were subcultured or harvested for assay use.
(§2) A serial dilution of test compound was dispensed into a 96 well black clear bottom plate (Corning, Corning, N.Y.). For each cell line, three thousand cells were added per well in complete growth medium. Plates were incubated for 72 hours at 37 degrees Celsius, 5% CO2, 95% humidity. At the end of the incubation period Cell Titer Blue (Promega, Madison, Wis.) was added to each well and an additional 4.5 hour incubation at 37 degrees Celsius, 5% CO2, 95% humidity was performed. Plates were then read on a BMG Fluostar Optima (BMG, Durham, N.C.) using an excitation of 544 nm and an emission of 612 nm. Data was analyzed using Prism software (Graphpad, San Diego, Calif.) to calculate IC50's.

[3] = target: T4, C-Met kinase (SEQ ID NO:10) (Homo sapiens, UniProt P08581); test: C-Met kinase assay (pyruvate kinase/lactate dehydrogenase coupled); conditions: 0.5 h preincubation at 22° C., ATP 100 μM; read-out: c-Met Enzyme Assay, biochemical IC50
T4 construct: purchased Invitrogen PV3143
T4 sequence (P08581 with tags, fused parts or gaps): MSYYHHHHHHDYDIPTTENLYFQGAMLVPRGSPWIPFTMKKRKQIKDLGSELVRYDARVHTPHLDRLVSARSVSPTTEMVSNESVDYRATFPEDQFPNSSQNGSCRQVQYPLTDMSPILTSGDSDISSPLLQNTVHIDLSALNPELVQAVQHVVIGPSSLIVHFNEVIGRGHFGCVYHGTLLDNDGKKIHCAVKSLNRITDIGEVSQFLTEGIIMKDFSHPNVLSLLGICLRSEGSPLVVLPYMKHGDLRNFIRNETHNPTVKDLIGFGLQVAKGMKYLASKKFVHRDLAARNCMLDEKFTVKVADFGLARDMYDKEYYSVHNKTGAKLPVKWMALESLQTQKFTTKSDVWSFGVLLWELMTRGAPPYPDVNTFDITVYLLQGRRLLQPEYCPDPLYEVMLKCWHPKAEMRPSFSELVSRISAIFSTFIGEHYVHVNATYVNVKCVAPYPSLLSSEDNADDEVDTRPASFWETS
Protocol: C-Met Kinase (SEQ ID NO:10) Assay
Activity of C-Met kinase (SEQ ID NO:10) was determined by following the production of ADP from the kinase reaction through coupling with the pyruvate kinase/lactate dehydrogenase system (e.g., Schindler, et al. Science (2000) 289, 1938-1942). In this assay, the oxidation of NADH (thus the decrease at A340 nm) was continuously monitored spectrophometrically. The reaction mixture (100 μl) contained C-Met (c-Met residues; 956-1390, from Invitrogen, catalogue #PV3143, 6 nM), polyE4Y (1 mg/ml), MgCl2 (10 mM), pyruvate kinase (4 units), lactate dehydrogenase (0.7 units), phosphoenol pyruvate (1 mM), and NADH (0.28 mM) in 90 mM Tris buffer containing 0.25 mM DTT, 0.2% octyl-glucoside and 1% DMSO, pH 7.5. Test compounds were incubated with C-Met (SEQ ID NO:10) and other reaction reagents at 22° C. for 0.5 h before ATP (100 μM) was added to start the reaction. The absorption at 340 n=was monitored continuously for 2 hours at 30° C. on Polarstar Optima plate reader (BMG). The reaction rate was calculated using the 1.0 to 2.0 h time frame. Percent inhibition was obtained by comparison of reaction rate with that of a control (i.e. with no test compound). IC50 values were calculated from a series of percent inhibition values determined at a range of inhibitor concentrations using software routines as implemented in the GraphPad Prism software package.

[4] = target: T5, BaF3 cells transfected with wild type p210 BCR-Abl (Homo sapiens, UniProt P00519); test: Ba/F3 p210 whole cell proliferation assay (Cell Titer Blue, 72 hours); assay type: cell-based; conditions: 72 hours incubation; read-out: Ba/F3 p210 whole cell proliferation assay, antiproliferation IC50
T5 construct: fused on or other part: P11274 (Breakpoint cluster region protein)
Protocol: as §1, §2

[5] = target: B-Raf(V600E) kinase (SEQ ID NO:11) (Homo sapiens, UniProt P15056, V600E); test: B-Raf(V600E) kinase assay (pyruvate kinase/lactate dehydrogenase coupled, MEK1 substrate); conditions: 1 h preincubation at 30° C., ATP 0.2 mM; read-out: B-Raf V600E Enzyme Assay, biochemical IC50
Chain of B-Raf(V600E) kinase (SEQ ID NO:11) (P15056 with tags, fused parts or gaps V600E): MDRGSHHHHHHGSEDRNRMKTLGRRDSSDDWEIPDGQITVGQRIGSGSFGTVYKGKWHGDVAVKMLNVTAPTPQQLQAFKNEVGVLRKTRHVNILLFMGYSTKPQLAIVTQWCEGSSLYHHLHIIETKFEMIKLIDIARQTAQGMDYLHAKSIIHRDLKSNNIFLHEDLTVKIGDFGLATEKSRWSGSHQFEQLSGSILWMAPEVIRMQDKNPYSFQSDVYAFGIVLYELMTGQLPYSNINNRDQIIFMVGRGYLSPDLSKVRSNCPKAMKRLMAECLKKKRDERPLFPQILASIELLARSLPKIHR
Protocol: B-Raf(V600E) Kinase Assay
The activity of B-Raf(V600E) kinase (SEQ ID NO:11) was determined by following the formation of ADP from the reaction through coupling with the pyruvate kinase/lactate dehydrogenase system (e.g., Schindler, et al. Science (2000) 289, 1938-1942). In this assay, the oxidation of NADH (thus the decrease at A340nm) was continuously monitored spectrophotometrically. The reaction mixture (100 μl) contained B-Raf(V600E) kinase (0.34 nM nominal concentration, SEQ ID NO:11), unphosphorylated, full-length MEK1 (42 nM, SEQ ID NO:12), MgCl2 (13 mM), pyruvate kinase (3.5 units), lactate dehydrogenase (5.5 units), phosphoenolpyruvate (1 mM), and NADH (0.28 mM), in 60 mM Tris buffer, containing 0.13% octyl-glucoside and 3.5% DMSO concentration at pH 7.5. The test compounds were incubated with the reaction mixture at 30° C. for 1 h. The reaction was initiated by adding ATP (0.2 mM, final concentration). The absorption at 340 nm was continuously monitored for 3 h at 30° C. on a Polarstar Optima plate reader (BMG). The reaction rate was calculated using the 0.5 h to 1.5 h time frame. Percent inhibition was obtained by comparison of reaction rate with that of a control (i.e. with no test compound). IC50 values were calculated from a series of percent inhibition values determined at a range of inhibitor concentrations using software routines as implemented in the GraphPad Prism software package.

Row | Structure (SMILES) | IC50 (Abl kinase (SEQ ID NO:1)) [µM] | IC50 [1] [µM] | GI50 [2] [µM] | IC50 [3] [µM] | GI50 [4] [µM] | IC50 [5] [µM]
1 | Cn1cc(-c2cc(Oc3ccc(NC(=O)Nc4cc(C(C)(C)C)nn4-c4ccccc4)c(F)c3)ccn2)cn1 [Example 1, 1-(3-t-butyl-1-phenyl-1H-pyrazol-5-yl)-3-(2-fluoro-4-(2-(1-methyl-1H-pyrazol-4-yl)pyridin-4-yloxy)phenyl)urea] | < 0.1 | < 0.1 | < 0.1 | < 0.1 | < 0.1 | –
2 | CCc1cc(NC(=O)Nc2ccc(Oc3ccnc(-c4cnn(CC)c4)c3)cc2F)n(-c2cccc(C#N)c2)n1 [Example 18, 1-(1-(3-cyanophenyl)-3-ethyl-1H-pyrazol-5-yl)-3-(4-(2-(1-ethyl-1H-pyrazol-4-yl)pyridin-4-yloxy)-2-fluorophenyl)urea] | < 0.1 | – | < 0.1 | < 1 | < 0.1 | < 1
3 | CC(C)n1ncc(NC(=O)Nc2ccc(Oc3ccnc(-c4cnn(C)c4)c3)cc2F)c1-c1ccccc1 [Example 20, 1-(2-fluoro-4-(2-(1-methyl-1H-pyrazol-4-yl)pyridin-4-yloxy)phenyl)-3-(1-isopropyl-5-phenyl-1H-pyrazol-4-yl)urea] | < 0.1 | – | < 1 | – | < 0.1 | < 10
4 | CCn1cc(NC(=O)Nc2ccc(Oc3ccnc(-c4cnn(C)c4)c3)cc2F)c(-c2ccccc2)n1 [Example 23, 1-(1-ethyl-3-phenyl-1H-pyrazol-4-yl)-3-(2-fluoro-4-(2-(1-methyl-1H-pyrazol-4-yl)pyridin-4-yloxy)phenyl)urea hydrochloride] | < 0.1 | – | – | – | – | < 10

Further lines, results first:

Row | IC50 (Abl kinase (SEQ ID NO:1)) [µM] | IC50 [1] [µM] | GI50 [2] [µM] | IC50 [3] [µM] | GI50 [4] [µM] | IC50 [5] [µM] | Structure (SMILES)
5 | < 0.1 | – | < 0.1 | < 1 | < 0.1 | < 1 | CCCn1cc(-c2cc(Oc3ccc(NC(=O)Nc4cc(CC)nn4-c4cccc(C#N)c4)c(F)c3)ccn2)cn1 [Example 15, 1-(1-(3-cyanophenyl)-S-ethyl-1H-pyrazol-5-yl)-3-(2-fluoro-4-(2-(1-propyl-1H-pyrazol-4-yl)pyridin-4-yloxy)phenyl)urea]
6 | < 1 | – | – | – | – | < 10 | CCn1ncc(NC(=O)Nc2ccc(Oc3ccnc(-c4cnn(C)c4)c3)cc2F)c1-c1ccccc1 [Example 22, 1-(1-ethyl-5-phenyl-1H-pyrazol-4-yl)-3-(2-fluoro-4-(2-(1-methyl-1H-pyrazol-4-yl)pyridin-4-yloxy)phenyl)urea hydrochloride]
